From patent US7476729B2, “Dbait and uses thereof” (Institut Curie, priority 2003, dated 2009)

Tests used:
[1] = test system: γ-H2AX foci in GMA32 cells; assay: Immunodetection of γ-H2AX DSB foci in GMA32 cells; type: cell-based, Chinese hamster; conditions: GMA32, Dbait with lipofectamine, no irradiation
Method: Under the same conditions, the immunodetection of DSB foci of γ-H2AX phosphorylated on serine 139 by γ-H2AX labeling (bright dots or patches in nuclei) was performed in the untreated GMA32 cells, the cells transfected alone, or transfected with different Dbait molecules by lipofectamine. The counterstaining of cell membranes and nuclei were achieved by FITC-DiOC6 and DAPI. Similar effects of Dbait molecules were observed (FIG. 3.2). […] This provides visual evidence that these Dbait molecules can be used for trapping proteins involved in DSB repair via NHEJ pathway.
For immunodetection, the cells were grown on coverslip in 5 cm diameter Petri dishes 24 hours before the transfection with different Dbait molecules. One day after the transfection, FITC-DiOC6 (Molecular probes) was added in the medium 5 minutes at 37° C. (to counterstain the membranes). After 3 washing cycles, the cells were fixated with 4% PFA for 20 minutes.
After additional washing, γ-H2AX phosphorylated on serine 139 (γ-H2AX) was detected with. rabbit anti-γ-H2AX antibody (4411-PC, Trevigen) diluted 1/100 in 1×PBS, 1% BSA. Cells were washed three times with 1×PBS, 0.5%, TritonX-100, then incubated for 1 hour at room temperature with goat anti-rabbit antibodies Alexa 594 (Molecular Probes) diluted 1/100 in 1×PBS, 1% BSA. Cells were visualized by epifluorescence microscopy.

Hep2 xenografted tumors = assay: Radiosensitization of Hep2 (HNSCC) tumors xenografted on nude mice; type: in vivo; set-up: Mean TGD: unit not given here
Method: In vivo activity of Dbait molecules in association with radiotherapy was assessed by using nude mice xenografted with human tumors by subcutaneous injection of radio-resistant cell lines (Hep2 derived from head and neck squmous cell carcinoma, HNSCC) or tumor fragments (previously obtained by subcutaneous injection of the U87 cell lines derived of glioblastoma).
Investigations were mainly carried out on the mice xenografted with radio-resistant human HNSCC tumors in order to establish proof of concept in vivo. Irradiation was performed with γ-rays from a ^137Cs source with appropriate protection of mice in order to perform localized irradiation of tumors. Typical assay condition consists of intratumoral injection of an appropriate preparation of 1 nmole Dbait molecules with transfecting agents (cationic dendrimer (Superefct, Qiagene), dioctadecylamidoglycyl-spermine (DOGS, Polyplus transfection), polyethyleneimine (PEI, Polyplus Transfection) according to manufacturer's instruction, 5 hours prior irradiation. A total dose of 30 Gy was delivered in 5 weeks: i) 3×2 Gy/week (about one every two days); ii) 5 Gy/week; iii) 15 Gy/2 weeks.
The size of tumor was measured 2-3 times a week. Treatment by irradiation and intratumoral injection of MEM medium (the Dbait dilution buffer), was used as a control of irradiation treatment without Dbait. The volume of tumor was calculated ([…], where a=length, b=width). The ratio of volume measured at t time over the initial volume (Vt/Vi) was used as indicator of tumor progression. The mice were followed up to 100 days. At least 4 independent series of six animals were tested.
MEM or Dbait32H (SEQ ID NO: 1) was delivered by intratumoral injection 5 hours prior irradiation. The fractionated irradiation dose (2 Gy) was given one of every two days, three times a week. The treatment lasted 5 weeks totaling 30 Gy irradiation. The dots represent the time course of tumor volume of each mouse. The solid lines are the best polynomial fitting.
Tumor growth was monitored during treatment and after in four groups of 10 animals with different treatments (untreated, treated with Dbait32H (SEQ ID NO: 1) alone, treated by irradiation alone, and the combined Dbait32H (SEQ ID NO: 1) and irradiation). Individual tumor growth is indicated for each animal. The treatment protocol was the same as described in FIG. 4.1. The experiment started when the volume of Hep2 tumors reached 150-200 mm^3. For each treatment session, 20 μg Dbait32H (SEQ ID NO: 1) formulated with polyethyleneimine (PEI, Polyplus Transfection, Strasbourg, France) according to the manufacturer's instruction was injected into tumor 5 hours prior 2 Gy irradiation.
For ethical reason, the animals were sacrificed when their tumors reached 2 cm^3. This end-point was used as death in survival analysis. The treatment protocol was described in FIG. 4.3. The five groups were included: untreated, mock-tranfected and irradiated, treated by combined irradiation and increasing amount of Dbait32H (SEQ ID NO: 1) (20, 60 and 120 μg/session). […] Pictures of tumors representative of the groups (untreated, treated with 20 and 60 μg Dbait32H/session associated with 2 Gy irradiation) which were taken 15 days after beginning of treatment, at the end of treatment (35 days) and 13 days after the end of treatment (35+13 days). They provided clear visual comparison of the benefit of the combined Dbait32H (SEQ ID NO: 1) and irradiation treatment.
Descriptive analyses of the tumor response were performed for each treatment and each tumor type. Day 1 was the day of the first treatment session. All the animals were followed for at least 150 days or until their ethical sacrifice. Median lifetime was estimated according to the Kaplan-Meier method. TGD was calculated by subtracting the mean tumor volume quadrupling time of the control group from tumor volume quadrupling times of individual mice in each treated group. […]

[2] = Hep2, 15 × 2 Gy, 15 × 20 μg (1 nmole)
[3] = Hep2, 15 × 2 Gy, 15 × 60 μg (3 nmole)
[4] = Hep2, 15 × 2 Gy, 15 × 120 μg (6 nmole)
[5] = Hep2, no irradiation, 15 × 20 μg (1 nmole)
[6] = Hep2, 15 × 2 Gy, 15 × 120 μg (12 nmole)
[7] = Hep2, no irradiation, 15 × 120 μg (12 nmole)

## Dbait32H: hairpin double strand DNA with a stem of 32-bp, hexaethyleneglycol linker, phosphorothioate at the free blunt end (DNA ACGCACGGGTGTTGGGTCGTTTGTTCGGATCT; DNA, backbone not given here; hairpin, hexaethyleneglycol loop, 3-bp phosphorothioate at free blunt end)
[1]
  γ-H2AX DSB foci (cell response): effectively trigger similar cell response as if DNA damages were occurred in nuclei
Hep2 xenografted tumors; 1 nmole (20 μg) intratumoral 5 hours prior irradiation, 3×2 Gy/week, 5 weeks, versus MEM+3×2 Gy
  radiosensitization, tumor growth (Vt/Vi): clearly showed radiosensitization
Hep2 xenografted tumors; 20 μg with PEI intratumoral 5 hours prior 2 Gy, 15 sessions, versus irradiation or Dbait32H alone
  tumor growth: greatly reduced
Hep2 xenografted tumors; 20, 60 and 120 μg/session with 2 Gy irradiation
  survival (Kaplan-Meier), dose dependence: clear dose-dependent effect
Hep2 xenografted tumors; [2]
  Mean % TGD: 561%
  Mean TGD: 49
  Median survival time: 93 days
Hep2 xenografted tumors; Hep2, 15 × 2 Gy, 15 × 20 μg (1 nmole), reference C* (Mock + irradiation)
  Relative risk: 0.42
Hep2 xenografted tumors; [3]
  Mean % TGD: 880%
  Mean TGD: >83
  Median survival time: 129 days
  Number of cured mice: 3
Hep2 xenografted tumors; Hep2, 15 × 2 Gy, 15 × 60 μg (3 nmole), reference C* (Mock + irradiation)
  Relative risk: 0.28
Hep2 xenografted tumors; [4]
  Mean % TGD: 952%
  Mean TGD: >91
  Median survival time: 150 days
  Number of cured mice: 4
Hep2 xenografted tumors; Hep2, 15 × 2 Gy, 15 × 120 μg (6 nmole), reference C* (Mock + irradiation)
  Relative risk: 0.18
Hep2 xenografted tumors; [5]
  Mean % TGD: 168%
  Mean TGD: 7
  Median survival time: 55 days
Hep2 xenografted tumors; Hep2, no irradiation, 15 × 20 μg (1 nmole), reference C (untreated)
  Relative risk: 0.62
Hep2 xenografted tumors; mid-course (7 sessions), 20 μg/session and 2 Gy/session versus irradiation alone
  NMR imaging: necrotic area: necrotic area was more important
Hep2 xenografted tumors; mid-course treatment (7 sessions), 20 days, combined with irradiation versus irradiation alone
  histology: necrosis and apoptosis: enhancement of necrosis and apoptosis was observed
Hep2 xenografted tumors; xenografted tumors on nude mice
  radiosensitization depending on dwell time between intratumoral injection and ionizing radiation: 5 hours>>1 hour

## Dbait32ss: 32-nt single strand DNA (SEQ ID NO: 1) (DNA ACGCACGGGTGTTGGGTCGTTTGTTCGGATCT; DNA, backbone not given here)
Hep2 xenografted tumors; [6]
  Mean % TGD: 374%
  Mean TGD: 29
  Median survival time: 80 days
Hep2 xenografted tumors; Hep2, 15 × 2 Gy, 15 × 120 μg (12 nmole), reference C* (Mock + irradiation)
  Relative risk: 0.57
Hep2 xenografted tumors; [7]
  Mean % TGD: 156%
  Mean TGD: 6
  Median survival time: 46 days
Hep2 xenografted tumors; Hep2, no irradiation, 15 × 120 μg (12 nmole), reference C (untreated)
  Relative risk: 0.71
Hep2 xenografted tumors; high dose (15 × 120 μg)
  in vivo activity (survival of xenografted animals): inactive
